Patent US10450317B2, “Notch pathway signaling inhibitor compounds” (Eli Lilly and Company, priority 2015, dated 2019)

Test system: Atoh1
Experiment: Hair cell marker induction in whole otic capsule culture (RT-PCR)
Type: cell-based, mice
Settings: otic capsule explants, 48 hours in culture, vs vehicle-only control, n of 12-17
Text: The otic capsule (otic capsule explant), comprised of the cochlear bony labrinth and vestibular systems, is dissected from 1 to 4 day-old postnatal mice (transgenic strain: Atoh 1-driven nGFP; Lumpkin E A, et al., Gene Expr. Patterns, 2003, 3(4): 389-95) of both sexes generally according to the method described in Parker et al., Journal of Visualized Experiments, 2010, (36), e1685. The entire otic capsule is isolated from the parietal bone and maintained ex-vivo in a roller tube culture system for up to 3 days in medium containing DMEM, high glucose, 5% FBS, 5% horse serum, 1 μg/ml ampicillin.
The otic capsule explant is used to evaluate test compound, in various delivery vehicles, penetrance into the inner ear. Tests are carried out with compositions of Compound 1, Isomer 2, (7.2 mM) in various delivery vehicles. […]
The composition is allowed to remain for 1-2 hours then washed away with culture medium. […] The cochlea is broken open and the entire organ of Corti is then dissected out and prepared for quantitative RT-PCR to measure Atoh1 hair cell marker expression levels (as described in organ of Corti explant assay, above). […] Up-regulation of Atoh1 by Compound 1, Isomer 2, in all tested compositions (2-3 fold, n of 12-17) is measured in comparison to vehicle-only control-treated otic capsule explants after 48 hours in culture.

COc1ccc2c(c1)N1CCC(C)(C)C1=CC(=O)C2NC(=O)[C@H](C)NC(=O)CCC(F)(F)F (single isomer, unassigned) [Compound 1, Isomer 2]
Up-regulation of Atoh1 in all tested compositions: 2-3 fold
